Several values for one entry are separate records, joined by “and”; a condition that tells them apart may be missing. Equal values may be shown once.
What was measured:
[1] = Surface tension measurements (tensiometry), CMC determination; format: physicochemical; details: for Amin (minimum area per surfactant molecule): air-water interface, calculated from Γmax; for γCMC (surface tension at CMC) / CMC (critical micelle concentration): in water, room temperature; for CMC (critical micelle concentration): straight-line interception method; for Γmax × 10^−6 (maximum surface excess): values × 10^−6, Gibbs equation from surface tension plot
Description: Surface tension of different concentrations of surfactant solutions in water was measured using a platinum cylindrical rod probe with wetted length of 1.6 mm (K100-Krüss force tensiometer, Hamburg, Germany) at room temperature. Approximately 1 mL of each surfactant solution was placed onto a Teflon plate and the surface of the liquid was aspirated to remove any remaining impurities. Then, the rod probe was immersed 2 mm into the liquid. Data are expressed as the mean of three repeated measurements performed at room temperature. The critical micelle concentration and the surface tension at the CMC (γCMC) were calculated through the straight-line interception method, while the Gibbs surface excess (Γmax) was calculated from the following equation:(1) Γmax=1/2.303 × n × R × T (δγ/δlogC) where T is the absolute temperature, R is the gas constant (8.314 J/mol K), C is the surfactant concentration, n = 1 for a non-ionic candidate. δγ/δlogC was calculated from the maximum slope of the plot surface tension vs. surfactant concentration in the linear region before CMC.
The minimum area per surfactant molecule at the air-water interface (Amin) was determined as follow:(2) Amin= 10^18/N × Γmax where N is the Avogadro number.

Calu-3 cells [2] = assay: Lactate dehydrogenase (LDH) release assay; format: cell-based; details: Calu-3, 24 h exposure, 50% release of LDH; for IC50: Homo sapiens
Description: (§1) Caco-2 and Calu-3 cells were seeded in sterile 96-well culture plates at a density of 3 × 10^4 cells per well. Surfactant solutions (at the same concentration as in MTT assay described above) were added to the cells and incubated at 37 °C for 24 h. Triton X-100 at 1% v/v was used as positive control. LDH release assay was conducted according to the manufacturer’s protocol. The percentage of released LDH was calculated relative to the controls by taking samples treated with Triton X-100 as complete LDH release and untreated cells as nil LDH release.
(§2) The concentration of surfactant that caused a 50% release of LDH (IC50, mM), was calculated by fitting the experimental data with dose–response model (Prism 6, Version 6.0b, GraphPad Software).

Caco-2 cells [3] = assay: Lactate dehydrogenase (LDH) release assay; format: cell-based; details: Caco-2, 24 h exposure, 50% release of LDH
Description: as §1, §2

Calu-3 cells [4] = assay: MTT cell viability assay; format: cell-based; details: Calu-3, 24 h exposure, 50% reduction of viable cells; for IC50: Homo sapiens
Description: (§3) Caco-2 and Calu-3 cells were seeded in sterile 96-well culture plates at a density of 3 × 10^4 cells per well. The cells were incubated to attain at least 80% confluence before the experiment. Stock solutions of surfactants were prepared in phosphate buffered saline (PBS). They were diluted at various concentrations (from 0.0078 to 1 mg/mL) in cell culture medium before added to the cells. Complete culture media were used as control. The cytotoxic effect of each surfactant was evaluated using the MTT cell viability assay. After 24 h of incubation, surfactant solution was discarded and replaced by MTT solution (0.8 mg/mL). The cells were subjected to MTT treatment for 2 h. Formazan crystals formed were then dissolved in absolute isopropanol and incubated with gentle shaking at room temperature for 15 min. Absorbance was measured at 570 nm using a microplate reader (Multiskan™ GO Microplate Spectrophotometer Thermo Scientific, Waltham, MA, USA). Percentage of viable cells was calculated using untreated cells as control with 100% cell viability. The percentage of viable cells was plotted against log concentration of the surfactants. IC50 (mg/mL), the concentration of surfactant that caused a 50% reduction in cell viability was calculated by fitting the experimental data with dose–response model (Prism 6, Version 6.0b, GraphPad Software).

Caco-2 cells [5] = assay: MTT cell viability assay; format: cell-based; details: Caco-2, 24 h exposure, 50% reduction of viable cells; for IC50: Homo sapiens
Description: as §3

Calu-3 cell monolayer = assay: Trans-epithelial electrical resistance (TEER) measurement; format: cell-based; details: Calu-3 monolayer, apical, 2 h, applied at MTT IC50 and at highest 100% viability concentration
Description: (§4) Caco-2 and Calu-3 cells were seeded at a density of 2 × 10^5 cells per well on filter inserts (Transwell® Permeable Support 12 mm Insert, Corning Life Sciences, Tewksbury, MA, USA) and cultured to confluence under air-liquid interface conditions. Culture media on the baso-lateral sides of the cells were changed every 24 h. For TEER measurements, culture medium was discarded from the cell layer and replaced with Kreb’s Balanced Saline Solutions (KBSS) on both the apical and baso-lateral sides of the monolayers. Cell layers were allowed equilibrating in KBSS at 37 °C, 5% CO2 for 45 min prior to sample application. Baseline TEER was measured before the treatment with surfactants. For each surfactant, concentrations that caused 50% cell viability, and the highest concentration that maintained 100% cell viability (according to the MTT assay) were added to the apical sides of the cell layers and incubated for 2 h. TEER was then measured at 5, 30, 60, 90 and 120 min after surfactant addition. Between TEER measurements, cells were incubated at normal cell culture conditions. After 120 min, surfactant was removed, and culture media were added to both sides of the filter inserts. TEER measurement was conducted again after 24 h to evaluate the recovery of cell monolayers. A volt-ohmmeter (Millcell® ERS-2 Voltohmmeter, Millipore, Burlington, MA, USA) equipped with a pair of electrodes was used for TEER measurement. Baseline TEER measured from cell layers incubated in KBSS was used as control and the change in TEER was presented as a percentage relative to baseline value. Three independent experiments were performed in duplicate.

Caco-2 cell monolayer = assay: as above; format: cell-based; details: Caco-2 monolayer, apical, 2 h; applied at MTT IC50 and at highest 100% viability concentration
Description: as §4

Calu-3 cells [6] = assay: Mitochondrial membrane potential (JC-1 assay); format: cell-based; details: Calu-3, 24 h in HBSS, same concentrations compared
Description: (§5) Caco-2 and Calu-3 cells were seeded in sterile 96 well plates at a density of 1 × 10^4 cells per well and cultured for 24 h. As above, surfactant solutions were applied in Hank’s balanced salt solution (HBSS) for 24 h. One millimolar FCCP was employed as the positive, mitochondrial depolarizing control. Following exposure, treatments were removed and cells were washed twice with PBS prior to the addition of 50 µL (5 µg/mL) JC-1 dye diluted in complete DMEM (without antibiotics) per well for 15 min at 37 °C. Dye solution was then removed and wells washed with PBS followed by addition of 50 µL/well PBS prior to measuring fluorescence at 550/600 nm (λex/λem) for detection of JC-1 J-aggregates and 485/535 nm (λex/λem) for detection of JC-1 monomers. A ratio between JC-1 aggregates and JC-1 monomer signals was then taken, and data normalized by setting the untreated control as a value of 1.0 and the positive control (1.0 mM FCCP) as a value of 0.0.

Caco-2 cells [7] = assay: Mitochondrial membrane potential (JC-1 assay); format: cell-based; details: Caco-2, 24 h in HBSS, same concentrations compared
Description: as §5

Amin (minimum area per surfactant molecule) [1]	γCMC (surface tension at CMC) [1]	CMC (critical micelle concentration) [1]	γCMC (surface tension at CMC) ([1]; listed as lactose caprate)	Γmax × 10^−6 (maximum surface excess) [1]	IC50 (Calu-3 cells [2])	IC50 (Caco-2 cells [3]; Homo sapiens, Caco-2, 24 h)	IC50 (Calu-3 cells [4])	IC50 (Caco-2 cells [5])	γCMC (surface tension at CMC) ([1]; listed as lactose laurate)	IC50 (Caco-2 cells [3])	SMILES	LDH Assay IC50 (Calu-3 cells [2])	LDH Assay IC50 (Caco-2 cells [3])	MTT Assay IC50 (Calu-3 cells [4])	MTT Assay IC50 (Caco-2 cells [5])	effect on TEER (Calu-3 cell monolayer)	effect on TEER (Calu-3 cell monolayer; listed as lactose caprate)	effect on TEER (Caco-2 cell monolayer)	mitochondrial membrane potential (J-aggregates:J-monomers ratio) (Calu-3 cells [6])	mitochondrial membrane potential (J-aggregates:J-monomers ratio) (Caco-2 cells [7])
17.46 ± 0.25 Å^2	40.6 ± 0.04 mN/m	2.58 ± 0.32 mM	around 40 mN/m	9.52 ± 0.11 mol/m^2	> 2000 µM	> 2000 µM	> 2000 µM	> 2000 µM	–	–	CCCCCCCCCC(=O)OC[C@H]1O[C@@H](O[C@H]2[C@H](O)[C@@H](O)[C@@H](O)O[C@@H]2CO)[C@H](O)[C@@H](O)[C@H]1O [Lactose caprate, 6′-O-Decanoyl-4-O-(β-D-galactopyranosyl)-D-glucopyranose]	higher than the tested concentration range	higher than the tested concentration range	higher than the tested concentration range	higher than the tested concentration range	more significant decrease in TEER in Calu-3 cells compared to Caco-2 cells	only slightly affected the TEER	–	–	–
17.45 ± 0.09 Å^2	40.4 ± 0.02 mN/m	0.55 ± 0.02 mM	–	9.52 ± 0.05 mol/m^2	452 µM	597 µM	1070 µM	376 µM	around 40 mN/m	–	CCCCCCCCCCCC(=O)OC[C@H]1O[C@@H](O[C@H]2[C@H](O)[C@@H](O)[C@@H](O)O[C@@H]2CO)[C@H](O)[C@@H](O)[C@H]1O [Lactose laurate, 6′-O-Dodecanoyl-4-O-(β-D-galactopyranosyl)-D-glucopyranose]	–	–	–	–	most effective surfactant in decreasing the TEER at both tested concentrations	–	moderate reduction of TEER	–	–
19.86 ± 0.80 Å^2	45.6 ± 0.19 mN/m	0.14 ± 0.05 mM	–	8.37 ± 0.46 mol/m^2	189 µM	194 µM	261 µM	112 µM	–	–	CCCCCCCCCCCCCC(=O)OC[C@H]1O[C@@H](O[C@H]2[C@H](O)[C@@H](O)[C@@H](O)O[C@@H]2CO)[C@H](O)[C@@H](O)[C@H]1O [Lactose myristate, 6′-O-Tetradecanoyl-4-O-(β-D-galactopyranosyl)-D-glucopyranose]	–	–	–	–	–	–	–	–	–
25.69 ± 0.43 Å^2	45.1 ± 0.33 mN/m	0.08 mM and 0.08 ± 0.03 mM	–	6.46 ± 0.11 mol/m^2	142 µM	194 µM	122 µM	60 µM	–	163 µM	CCCCCCCCCCCCCCCC(=O)OC[C@H]1O[C@@H](O[C@H]2[C@H](O)[C@@H](O)[C@@H](O)O[C@@H]2CO)[C@H](O)[C@@H](O)[C@H]1O [Lactose palmitate, 6′-O-Esadecanoyl-4-O-(β-D-galactopyranosyl)-D-glucopyranose]	–	–	–	–	–	–	–	highest cytotoxic effect	highest cytotoxic effect
